Here are results for five molecules from PMC11459959, “Discovery of new acetamide derivatives of 5-indole-1,3,4-oxadiazol-2-thiol as inhibitors of HIV-1 Tat-mediated viral transcription” (Antimicrobial Agents and Chemotherapy, 2024).

SMILES strings stand for the structures. Where two headings read alike, the source gives them in different places.

What all share (format): cell-based
For one data set, the system named is HIV-1NL4-3. Nature of the data set: HIV-1 replication in PBMCs (p24 […]). As to conditions: for EC50: Human immunodeficiency virus 1, PBMC, 72 h. Here is the method:
(§1) The p24 level from the cell supernatant was subsequently determined using a p24 […] kit (PerkinElmer). In parallel, the cell viability was determined without viral infection because of the viral cytopathic effect. […] In parallel, cell viability was determined. The data (A and B) are presented as the mean ± SD (n = 3). (C) PBMCs (4 × 10^5) infected with HIV-AD8 at an MOI of 0.1 were treated with 1.5 µM of the compounds or ARVs for 3 days. The levels of p24 and cell viability were subsequently determined. (D) J1.1 cells were cultured with the compounds ([…]) under 50 ng/mL phorbol myristate acetate (PMA) treatment for 2 days. The level of p24 was subsequently determined. (E) J-Lat 6.3 cells were treated with the compounds (1.5 µM) under 1 µg/mL of PMA for 2 days. The GFP-positive cell population was analyzed using flow cytometry. The data are represented as a value relative to the DMSO-treated vehicle (D) and a percent of the GFP^+ cell population (E) as mean ± SD (n = 3).
(§2) The inhibitory effects of the compounds on viral replication were determined with some minor modifications, as previously described ([12], [62]). […] PBMCs (4 × 10^5) pre-activated with PHA-M for 3 days were washed with fresh media to remove excess PHA-M and subsequently infected with HIV-1NL4-3 or HIV-1AD8 or PIs-resistant HIV-1 strains as A3.01 infection. After infection, the infectious media were replaced with fresh media supplemented with international 10 units (IU)/mL of IL-2 and the indicated compounds. At 72 h after infection, the inhibitory effect of the compounds on viral replication was determined by measuring the p24 amount, an HIV capsid protein, using an HIV-1 p24 […] kit (PerkinElmer, Waltham, MA, USA). Cell viability was determined as described above. The inhibitory effects on provirus reversing in J1.1 and J-Lat 6.3 cells were determined as previously described ([12], [41], [63]) with some minor modifications. Briefly, 5 × 10^4 persistently HIV-1-infected J1.1 or J-Lat 6.3 cells were cultured in either the presence or absence of the compounds at a final concentration of 1.5 µM and treated with PMA (50 ng/mL for J1.1 cells, 1 µg/mL for J-Lat 6.3 cells). Two days after treatment, the levels of viral production were determined using p24 […] for J1.1 cells and flow cytometry analysis for GFP-expressing J-Lat 6.3 cells.

The next data set can be described thus: Cell viability of PBMCs. As to conditions: human. The protocol:
as §1, §2

For data set [1], the system named is INSTI-resistant HIV-1 strain 11847. Briefly: microbe, parasite or virus in culture. As to conditions: Human immunodeficiency virus 1, TZM-bl.
The subject of data set [2] is INSTI-resistant HIV-1 strain 11849. Nature of the data set: microbe, parasite or virus in culture. As to conditions: Human immunodeficiency virus 1, TZM-bl.
For data set [3], the system named is NNRTI-resistant HIV-1 strain 12241. Nature of the data set: microbe, parasite or virus in culture. The settings on record: Human immunodeficiency virus 1, TZM-bl.
The subject of data set [4] is NNRTI-resistant HIV-1 strain 12243. Nature of the data set: microbe, parasite or virus in culture. The settings on record: Human immunodeficiency virus 1, TZM-bl.
Where [5] appears, read: HIV-1NL4-3 MOI 0.1, 3 days, p24, mean ± SD, read-out: EC50.
Where [6] appears, read: Table S1, WT virus, 10-fold serial dilution, p24, 3 days, read-out: EC50.
Setting [7] is: HIV-1NL4-3 MOI 0.1, 3 days, p24, read-out: EC50.
The mark [8] stands for this setting: PBMCs, absence of HIV-1 infection, mean ± SD, read-out: CC50.

Take `Cc1[nH]c2ccc(-c3nnc(SCC(=O)N4CCCC4)o3)cc2c1C` [Compound 13, 2-((5-(2,3-Dimethyl-1H-indol-5-yl)-1,3,4-oxadiazol-2-yl)thio)-1-(pyrrolidin-1-yl)ethan-1-one]: the “SI (CC50/EC50)” value in the data set with HIV-1NL4-3 was 282.81. Also, the EC50 came to 160 ± 20 nM in the data set with HIV-1NL4-3 (setting [5]); 100 ± 10 nM in the data set on HIV-1NL4-3 (setting [6]); 140 ± 10 nM in data set [1]; 230 ± 20 nM in data set [2]; 200 nM in data set [3]; 180 ± 10 nM in data set [4]. Also, the CC50 at 3 days in the data set “Cell viability of PBMCs” amounted to 45.2 ± 5.69 µM.
With `O=C1Nc2ccc(Cl)cc2[C@@](C#CC2CC2)(C(F)(F)F)O1` [EFV, efavirenz, reference compound], the “SI (CC50/EC50)” value in the data set with HIV-1NL4-3 is given as >29,460. Moreover, the results for the EC50 (in the data set on HIV-1NL4-3 (setting [7]); in data set [3]; in data set [4]) were under 1 nM, 4360 ± 80 nM and 15500 ± 3390 nM, respectively. Further, the CC50 at 3 days in the data set “Cell viability of PBMCs” (setting [8]) turned out to be 29.5 ± 3.62 µM.
For the molecule `C[C@@H]1CCO[C@H]2Cn3cc(C(=O)NCc4ccc(F)cc4F)c(=O)c(O)c3C(=O)N12` [DTG, dolutegravir, reference compound], in the data set on HIV-1NL4-3, the “SI (CC50/EC50)” value is >18,270. Further, the EC50 with HIV-1NL4-3 (setting [7]) is under 1 nM; in data set [1], 10 ± 10 nM; in data set [2], 10 nM. Also, the CC50 at 3 days in the data set “Cell viability of PBMCs” is 18.3 ± 0.58 µM.
On to `Cc1[nH]c2ccc(-c3nnc(SCC(=O)N4CCCCC4)o3)cc2c1C` [Compound 9, 2-((5-(2,3-Dimethyl-1H-indol-5-yl)-1,3,4-oxadiazol-2-yl)thio)-1-(piperidin-1-yl)ethan-1-one], for which, in the data set on HIV-1NL4-3, the “SI (CC50/EC50)” value is reported as 315.14. The EC50 in the data set on HIV-1NL4-3 (setting [5]) worked out at 140 ± 10 nM; with HIV-1NL4-3 (setting [6]), 100 nM; in data set [1], 70 nM; in data set [2], 80 ± 20 nM; in data set [3], 70 nM; in data set [4], 60 nM. This molecule also showed a CC50 at 3 days in “Cell viability of PBMCs” of 44.1 ± 3.71 µM.
With `CC(C)[C@]12O[C@H]1[C@@H]1O[C@]13[C@]1(O[C@H]1C[C@H]1C4=C(CC[C@@]13C)C(=O)OC4)[C@@H]2O` [triptolide, reference compound], the “SI (CC50/EC50)” value in the data set on HIV-1NL4-3 came out at 11.23. Also, the EC50 in the data set with HIV-1NL4-3 (setting [7]) was 16.9 ± 3.75 nM. In “Cell viability of PBMCs” (setting [8]), the CC50 at 3 days is 0.19 µM.
